From paper PMC8070256, “Feasibility of Developing Radiotracers for MDM2: Synthesis and Preliminary Evaluation of an ^18F-Labeled Analogue of the MDM2 Inhibitor SP-141” (Pharmaceuticals, 2021)

Experiments:
[1] = tested on: MCF-7 cells; assay: [^18F]1 uptake with or without co-incubated 100 µM SP-141, MCF-7; format: cell-based, human; settings: 100 µM SP-141 co-incubation, 15 min
Procedure: (§1) Because MDM2 is a transcriptional target of p53, stabilization of p53 levels after MDM2 inhibition with SP-141 is expected to cause a temporary increase in MDM2 protein expression via the autoregulatory loop. Thus, we hypothesized that treatment of tumor cells with high concentrations of SP-141 for shorter periods (e.g., <4 h) might induce MDM2 expression as a consequence of p53 activation, whereas low concentrations of SP-141 (≤1 µM) and longer incubation times (≥20 h) appear to promote MDM2 degradation in vitro. To investigate this, MCF-7 and HepG2 cells were incubated with or without 100 µM SP-141 for 15–120 min, and uptake was measured as a percentage input dose for each time point. Hep3B, a p53 null cell line, was used as a negative control. […]
(§2) For these studies, MCF-7 (WT-p53), HepG2 (WT-p53), and Hep3B (p53 null) cells were plated in 24-well plates (20,000/well) and incubated with [^18F]1 (~18.5 kBq in 0.5 mL) with or without 100 µM SP-141 for 15–120 min under standard cell culture conditions. […] The radioactivity in supernatants, wash fractions, and cell lysates was counted for each well using the gamma counter (Wallac Wizard). Cell uptake was calculated as the percentage of the input dose for the two treatment conditions (with/without 100 µM SP-141).

[2] = target: MDM2; settings: read-out: Binding affinity determined by SPR analysis; cited from earlier work
[3] = tested on: HepG2 cells; assay: Cell uptake of [^18F]1 in HepG2 cells after 21 h pretreatment; format: cell-based, human; settings: HepG2 cells
Procedure: (§3) The ability of [^18F]1 to bind to MDM2 expressing human tumor cells was assessed using two wild-type p53 cell lines, MCF-7 breast adenocarcinoma, and HepG2 hepatocellular carcinoma. These cell lines have significant MDM2 expression levels and have been utilized previously for assessing potential MDM2 inhibitors, including SP-141 [12, 24, 25]. […] Thus, to examine the uptake and specificity of [^18F]1 by MDM2 expressing tumor cell lines, MCF-7 and HepG2 cells were treated with 0, 1, 5, or 10 µM SP-141 for 21 h, and then assessed for [^18F]1 uptake for 1 h.
Cell uptake studies of [^18F]1 were conducted using MCF-7 and HepG2 cell lines. […] Next, the incubation medium was removed, cells were rinsed with cold PBS (3 × 0.5 mL) and lysed using Cell Culture Lysis Reagent (0.25 mL, Promega Corporation, Madison, WI, USA) followed by a rinse with PBS (0.125 mL/well). For each well, the supernatant, PBS washes, and the cell lysate were measured for radioactivity in an automated gamma counter (Wallac Wizard™, Perkin Elmer, Waltham, MA, USA). Subsequently, cell lysates were analyzed for protein concentration using the Bradford assay (Bio-Rad, Hercules, CA, USA). Cell uptake for each well was normalized to its protein content and expressed as % uptake/mg protein. Results are presented as mean ± SD for three wells.

[4] = tested on: HepG2 cells; assay: [^18F]1 uptake with or without co-incubated 100 µM SP-141, HepG2; format: cell-based, human; settings: 100 µM SP-141 co-incubation, 15 min
Procedure: as §1, §2

[5] = target: MDM2 protein; design: method as in PMID 25271708; settings: read-out: Binding affinity (Ki); cited from earlier work
[6] = tested on: MCF-7 cells; assay: Cell uptake of [^18F]1 in MCF-7 cells after 21 h pretreatment; format: cell-based, human; settings: MCF-7 cells
Procedure: as §3
Cell uptake studies of [^18F]1 were conducted using MCF-7 and HepG2 cell lines. Briefly, cells plated in 24-well plates (200,000/well) were treated with varying concentrations of SP-141 (1, 5, or 10 µM) or vehicle for 21 h and incubated with a fresh medium containing [^18F]1 (~18.5 kBq in 0.5 mL medium) for 1 h. Next, the incubation medium was removed, cells were rinsed with cold PBS (3 × 0.5 mL) and lysed using Cell Culture Lysis Reagent (0.25 mL, Promega Corporation, Madison, WI, USA) followed by a rinse with PBS (0.125 mL/well). For each well, the supernatant, PBS washes, and the cell lysate were measured for radioactivity in an automated gamma counter (Wallac Wizard™, Perkin Elmer, Waltham, MA, USA). Subsequently, cell lysates were analyzed for protein concentration using the Bradford assay (Bio-Rad, Hercules, CA, USA). Cell uptake for each well was normalized to its protein content and expressed as % uptake/mg protein. Results are presented as mean ± SD for three wells.

[7] = tested on: MCF-7 xenograft; design: method as in PMID 25271708, PMID 31832522, PMID 29354330; settings: 40 mg/kg i.p., 5 days a week, cited from earlier work
[8] = tested on: HepG2 cells; design: method as in PMID 25271708, PMID 31832522; settings: 0.5–1.0 µM for 24 h; cited from earlier work
[9] = tested on: HepG2 xenograft; design: method as in PMID 25271708, PMID 31832522, PMID 29354330; settings: 40 mg/kg i.p., 5 days a week, cited from earlier work
[10] = tested on: MCF-7 cells; design: method as in PMID 25271708, PMID 31832522; settings: 0.5–1.0 µM for 24 h; cited from earlier work
[11] = tested on: Hep3B cells; assay: [^18F]1 uptake with or without co-incubated 100 µM SP-141, Hep3B; format: cell-based, human; settings: Hep3B (p53 null) cells, 100 µM SP-141 co-incubation, 15-120 min
Procedure: as §1, §2

[12] = tested on: MDM2 gene expression; settings: AML patients, peripheral blasts, after 10 days of treatment; cited from earlier work

Compound: COc1ccc2[nH]c3c(-c4cccc5ccccc45)nccc3c2c1 [SP-141, 6-Methoxy-1-(naphthalen-1-yl)-9H-pyrido[3,4-b]indole]
- Increase of [^18F]1 uptake compared to cells incubated with only [^18F]1 [1]: 1.2 fold
- Kd [2]: 43 nM
- Effect of SP-141 pretreatment on [^18F]1 uptake ([3]; 10 µM SP-141 for 21 h): no noticeable effects
- Increase of [^18F]1 uptake compared to cells incubated with only [^18F]1 [4]: 1.4 fold
- Ki [5]: 28 ± 6 nM
- Decrease of [^18F]1 uptake compared to vehicle-treated cells ([6]; 1 µM SP-141 for 21 h): 76%
- Tumor growth ([7]; after 42 days): inhibited tumor growth significantly
- MDM2 levels in tumors [7]: decreased MDM2 levels in tumors
- Cellular MDM2 levels [8]: decreases cellular MDM2 levels
- Tumor growth ([9]; after 20 days): inhibited tumor growth significantly
- MDM2 levels in tumors [9]: decreased MDM2 levels in tumors
- Cellular MDM2 levels [10]: decreases cellular MDM2 levels
- Effect of SP-141 on [^18F]1 uptake [11]: no effect

Compound: CCOc1cc(C(C)(C)C)ccc1C1=N[C@@](C)(c2ccc(Cl)cc2)[C@@](C)(c2ccc(Cl)cc2)N1C(=O)N1CCN(CCCS(C)(=O)=O)CC1 [RG7112]
- Increase in median MDM2 gene expression levels [12]: 2.8 fold

Compound: COc1ccc(C2=N[C@@H](c3ccc(Cl)cc3)[C@@H](c3ccc(Cl)cc3)N2C(=O)N2CCNC(=O)C2)c(OC(C)C)c1 [Nutlin-3, reference compound]
- Change of [^18F]1 uptake after pretreatment ([3]; 10 µM Nutlin-3, 21 h): significant increases
- Inhibitory effect of pretreatment on [^18F]1 uptake ([3]; Nutlin-3 1-10 µM for 21 h): did not show any inhibitory effects
- Change of [^18F]1 uptake after pretreatment ([6]; 1 and 5 µM Nutlin-3, 21 h): significant increases
- Inhibitory effect of pretreatment on [^18F]1 uptake ([6]; Nutlin-3 1-10 µM for 21 h): did not show any inhibitory effects
